Laboratory results reported in the OligoGym collection.
Several values for one entry are separate records, joined by “and”; a condition that tells them apart may be missing. Identical values can stand only once. HELM strings list units from the 5' end as sugar, base in round brackets, then linkage (d deoxyribose, r ribose, m 2'-O-methyl, p phosphodiester). Methylation of C is not given here. [moe] = 2'-O-(2-methoxyethyl) (MOE); [cEt] = constrained ethyl (cEt); [sp] = phosphorothioate linkage

Biological target: HBV
Conditions: ASO

RNA1{[moe](A)[sp].[cEt](G)[sp].[cEt](A)[sp].d(G)[sp].d(G)[sp].d(T)[sp].d(G)[sp].d(A)[sp].d(A)[sp].d(G)[sp].d(C)[sp].d(G)[sp].d(A)[sp].[cEt](A)[sp].[cEt](G)[sp].[moe](T)}$$$$V2.0
target mRNA inhibition (HepG2, 0.07 µM): 68% and 74%

RNA1{[moe](A)[sp].[cEt](G)[sp].[cEt](G)[sp].d(A)[sp].d(G)[sp].d(T)[sp].d(T)[sp].d(C)[sp].d(C)[sp].d(G)[sp].d(C)[sp].d(A)[sp].d(G)[sp].[cEt](T)[sp].[cEt](A)[sp].[moe](T)}$$$$V2.0
target mRNA inhibition (HepG2, 0.0092593 µM): 4%
target mRNA inhibition (HepG2, 0.0277778 µM): 35%
target mRNA inhibition (HepG2, 0.07 µM): 89% and 79%
target mRNA inhibition (HepG2, 0.0833333 µM): 70%
target mRNA inhibition (HepG2, 0.25 µM): 87%

RNA1{[moe](A)[sp].[cEt](G)[sp].[cEt](G)[sp].d(T)[sp].d(G)[sp].d(A)[sp].d(A)[sp].d(G)[sp].d(C)[sp].d(G)[sp].d(A)[sp].d(A)[sp].d(G)[sp].[cEt](T)[sp].[cEt](G)[sp].[moe](C)}$$$$V2.0
target mRNA inhibition (HepG2, 0.009375 µM): 21%
target mRNA inhibition (HepG2, 0.01875 µM): 30%
target mRNA inhibition (HepG2, 0.0375 µM): 39%
target mRNA inhibition (HepG2, 0.07 µM): 79%
target mRNA inhibition (HepG2, 0.075 µM): 61%
target mRNA inhibition (HepG2, 0.15 µM): 79%
target mRNA inhibition (HepG2, 0.3 µM): 91%

RNA1{[moe](A)[sp].[cEt](G)[sp].[cEt](T)[sp].d(T)[sp].d(C)[sp].d(C)[sp].d(G)[sp].d(C)[sp].d(A)[sp].d(G)[sp].d(T)[sp].d(A)[sp].d(T)[sp].[cEt](G)[sp].[cEt](G)[sp].[moe](A)}$$$$V2.0
target mRNA inhibition (HepG2, 0.0092593 µM): 12%
target mRNA inhibition (HepG2, 0.0277778 µM): 25%
target mRNA inhibition (HepG2, 0.0833333 µM): 73%
target mRNA inhibition (HepG2, 0.25 µM): 84%

RNA1{[moe](A)[sp].[cEt](G)[sp].d(C)[sp].d(G)[sp].d(A)[sp].d(A)[sp].d(G)[sp].d(T)[sp].d(G)[sp].d(C)[sp].d(A)[sp].d(C)[sp].[cEt](A)[sp].[moe](C)[sp].[cEt](G)[sp].[moe](G)}$$$$V2.0
target mRNA inhibition (HepG2, 0.0092593 µM): 24%
target mRNA inhibition (HepG2, 0.0277778 µM): 62%
target mRNA inhibition (HepG2, 0.07 µM): 86% and 88%
target mRNA inhibition (HepG2, 0.0833333 µM): 84%
target mRNA inhibition (HepG2, 0.25 µM): 91%

RNA1{[moe](A)[sp].[cEt](G)[sp].d(G)[sp].d(C)[sp].d(A)[sp].d(T)[sp].d(A)[sp].d(G)[sp].d(C)[sp].d(A)[sp].d(G)[sp].d(C)[sp].[cEt](A)[sp].[moe](G)[sp].[cEt](G)[sp].[moe](A)}$$$$V2.0
target mRNA inhibition (HepG2, 0.07 µM): 66% and 52%

RNA1{[moe](A)[sp].[cEt](T)[sp].[cEt](G)[sp].d(A)[sp].d(G)[sp].d(G)[sp].d(C)[sp].d(A)[sp].d(T)[sp].d(A)[sp].d(G)[sp].d(C)[sp].d(A)[sp].[cEt](G)[sp].[cEt](C)[sp].[moe](A)}$$$$V2.0
target mRNA inhibition (HepG2, 0.0092593 µM): 13%
target mRNA inhibition (HepG2, 0.0277778 µM): 14%
target mRNA inhibition (HepG2, 0.07 µM): 65% and 83%
target mRNA inhibition (HepG2, 0.0833333 µM): 55%
target mRNA inhibition (HepG2, 0.25 µM): 70%

RNA1{[moe](A)[sp].[cEt](T)[sp].[cEt](T)[sp].d(T)[sp].d(A)[sp].d(T)[sp].d(G)[sp].d(C)[sp].d(C)[sp].d(T)[sp].d(A)[sp].d(C)[sp].d(A)[sp].[cEt](G)[sp].[cEt](C)[sp].[moe](C)}$$$$V2.0
target mRNA inhibition (HepG2, 0.07 µM): 57% and 46%
